One series relates to CCD18co. Kind of series: Cyquant and crystal violet cytotoxicity. In kind it is cell-based. The conditions noted are these: for IC50: CCD18co, normal colon epithelium, 72 hour incubation. The protocol: (§1) Cvquant and Crystal Violet Cytotoxicity Exponentially growing cells were transferred at a density of 1.0-4.0×10^3 cells per well to a 96-well tissue culture plate in growth medium (RPMI1640+10% FBS+antibiotics). Cells were allowed to attach for 24 hours in standard culture conditions (37° C., 5% CO2, 95% humidity). Experimental compounds were then applied in duplicate half log serial dilutions. After additional 72 hour incubation, surviving cells were stained with crystal violet (adherent cells) or Cyquant (semi or non—adherent cells). Absorbence or fluorescence, respectively, was monitored. IC50 values were derived from sigmoid curves fit according to the Hill inhibitory Emax model.
(§2) The selectivity of a given antitumor agent can be assessed by comparing the IC50 for a tumor cell line to the IC50 of a normal cell strain growing under the same conditions, determined and Cyquant staining for non-adherent cells, and crystal violet staining for adherent cells. The selectivity is given here as the ratio of normal cell IC50 to tumor cell IC50. In this case, normal cell IC50 is defined as the average of the value for CCD18co and Det551 to allow for direct comparison of the established cancer drug 5-FU with BVdU.

For another series, the system named is Det 551. Description: Cyquant and crystal violet cytotoxicity. In kind it is cell-based. The conditions noted are these: for IC50: Det 551, normal embryonic skin, 72 hour incubation. The protocol:
as §1, §2

Another series deals with H630-R10. Description: Cyquant and crystal violet cytotoxicity. In kind it is cell-based. The conditions noted are these: for IC50: H630-R10, tumor - colon, 5-FU resistant, high TS, 72 hour incubation; for normal/tumor IC50 ratio: normal IC50 = average of CCD18co and Det551. The procedure:
as §1, §2

Series [1] concerns MCF7 TDX. Kind of series: Cyquant and crystal violet cytotoxicity. In kind it is cell-based. The conditions noted are these: for normal/tumor IC50 ratio: normal IC50 = average of CCD18co and Det551; for IC50: tumor - breast, TDX resistant, high TS, 72 hour incubation. The procedure:
as §1, §2

The subject of the next series is MCF7. Kind of series: Cyquant and crystal violet cytotoxicity. In kind it is cell-based. The conditions noted are these: for IC50: MCF7, tumor - breast, parental control, 72 hour incubation; for normal/tumor IC50 ratio: normal IC50 = average of CCD18co and Det551. The protocol:
as §1, §2

The subject of another series is SKBR3 #52. Kind of series: Cyquant and crystal violet cytotoxicity. The conditions noted are these: for IC50: SKBR3 #52, tumor - breast, high TS transfectant, 72 hour incubation; for normal/tumor IC50 ratio: normal IC50 = average of CCD18co and Det551. In kind it is cell-based. The protocol:
as §1, §2

The subject of another series is SKBR3 V. Description: Cyquant and crystal violet cytotoxicity. In kind it is cell-based. The conditions noted are these: vector control, low TS, 72 hour incubation. The protocol:
as §1, §2

The next series concerns SW527P. Kind of series: Cyquant and crystal violet cytotoxicity. In kind it is cell-based. The conditions noted are these: tumor - breast, parental control, 72 hour incubation. The procedure: as §1, §2
Another series has as its system SW527TDX. Kind of series: Cyquant and crystal violet cytotoxicity. In kind it is cell-based. The conditions noted are these: for normal/tumor IC50 ratio: normal IC50 = average of CCD18co and Det551; for IC50: tumor - breast, TDX resistant, high TS, 72 hour incubation. The procedure:
as §1, §2

The test system of the next series is TS HT1080 #12. Kind of series: Cyquant and crystal violet cytotoxicity. The conditions noted are these: for IC50: TS HT1080 #12, tumor - fibrosarcoma, high TS transfectant, 72 hour incubation; for normal/tumor IC50 ratio: normal IC50 = average of CCD18co and Det551. In kind it is cell-based, human. The protocol:
as §1
Cell transfection. HT1080 cells were grown in RPMI1640 medium supplemented with 10% FBS, and transfected with TS expression vector. 48 hours later, transfected cells were trypsinized and replated in culture medium containing 750 μg/ml G418. After selection with G418 for two weeks, surviving cells were cloned. Clones with different TS levels were selected based on Western blot analysis, and expanded into cell lines. The stable HT1080 cells transfected with pcDNA3.1(−) only were used as control.
as §2

For series [2], the system named is H630 R10. Description: alamarBlue cytotoxicity assay. In kind it is cell-based. The conditions noted are these: for IC50: alamarBlue, drug exposure 120 hours, 5-FU resistant colon tumor cell line. The procedure:
(§3) alamarBlue cytotoxicity assay Tumor cells growing exponentially were transferred to 384 well flat bottom tissue culture plates. H630 R10 were plated at a density of 500 cells per well and MCF7 TDX at 250 cells/well in 25 μL of complete medium (RPMI 1640+10% fetal bovine serum+antibiotics/antimyotics). After 24 hours (day 0), 25 μL of complete medium containing the compounds (NB1011 or BVdU) over the dose range of 10^−3 to 10^−10 M were added in triplicate. Drug exposure time was 120 hours (day 5), after which growth inhibition was assayed. The redox indicator alamarBlue was added to each well at 10% (v/v). After 1-hour incubation at room temperature, fluorescence was monitored at 536 nm excitation and 595 nm emission. Concentration versus relative fluorescence units (RFU) was plotted, and sigmoid curves were fit using the Hill equation. IC50, indicated by the inflection point of the curve, is the concentration at which growth is inhibited by 50%.
(§4) H630 R10 is a colon cancer tumor cell line selected for resistance to 5-FU, and overexpresses thymidylate synthase protein approximately 20-fold. MCF7 TDX is a breast tumor cell line selected with Tomudex, and overexpresses thymidylate synthase to approximately the same extent.

Series [3] has as its system MCF7 TDX. Kind of series: alamarBlue cytotoxicity assay. In kind it is cell-based. The conditions noted are these: for IC50: alamarBlue. The procedure: as §3, §4
Another series deals with PC HT1080. Kind of series: Sensitivity of thymidine kinase transfected HT1080 cell lines to BVdU. In kind it is cell-based. The conditions noted are these: Homo sapiens, HT-1080; PC HT1080, TK protein level 100 units. The text has this: (§5) Cell lines that overexpress human thymidine kinase (TK) are also more sensitive to BVdU, providing another criterion for identification of tumor susceptibility to BVdU.

The next series deals with TKC HT1080 #22. The description is as above. In kind it is cell-based. The conditions noted are these: Homo sapiens, HT-1080; TKC HT1080 #22, TK protein level 400 units.
From the text: as §5

The next series has as its system TKC HT1080 #5. The series is described as above. The conditions noted are these: Homo sapiens, HT-1080; TKC HT1080 #5, TK protein level 200 units. In kind it is cell-based.
From the text: as §5

In series [4] the test system is H630 R10. The conditions noted are these: previously shown; cited from earlier work.

The values below come from US20070155673A1, “USE OF BVDU FOR INHIBITING THE GROWTH OF HYPERPROLIFERATIVE CELLS” (Celmed Oncology (USA), Inc., priority 1999, published 2007).

With `O=c1[nH]cc(F)c(=O)[nH]1` [5-FU, reference compound], the IC50 turned out to be 1.4 ± 0.4 µM in the series on CCD18co; 3.1 ± 0.5 µM with Det 551; 143 ± 5.9 µM with H630-R10; 6.7 ± 2 µM in the series with MCF7 TDX [1]; 8.8 ± 5.9 µM in the series with MCF7; 9.1 ± 1.6 µM in the series with SKBR3 #52. Also, the 50% inhibitory concentration (IC50) with SKBR3 V (tumor - breast) came to 7.4 ± 2.4 µM; in the series with SW527P, 9.1 ± 1.3 µM; in the series on SW527TDX, 20.4 ± 9.9 µM; in the series with TS HT1080 #12 it was 3.5 ± 0.2 µM. Besides, the “normal/tumor IC50 ratio” value in the series with H630-R10 (H630-R10) turned out to be 0.15; in the series on MCF7 TDX [1] it was 0.33; in the series with MCF7 (MCF7) it was 0.25; in the series on SKBR3 #52 (SKBR3 #52) it was 0.24; with SW527TDX, 0.11; in the series on TS HT1080 #12 (TS HT1080 #12), 0.64.
With `O=c1[nH]c(=O)n([C@H]2C[C@H](O)[C@@H](CO)O2)cc1/C=C/Br` [BVdU, (E)-5-(2-bromovinyl)-2′-deoxyuridine], the “fold less active than NB1011” value in the series on H630 R10 [2] (H630R10 cells, from IC50) is approximately 6 fold. Further, the IC50 turned out to be 303 µM in the series on H630 R10 [2] (Homo sapiens, NCI-H630); 0.005 µM with MCF7 TDX [3] (Homo sapiens, MCF7, Tomudex resistant breast cancer cell line); 0.005 µM in the series on MCF7 TDX [3] (Homo sapiens, MCF7, drug exposure 120 hours, Tomudex resistant breast tumor cell line); 4820 ± 128 µM with CCD18co (Homo sapiens, CCD-18Co); 2190 ± 682 µM with Det 551; 561 ± 157 µM with H630-R10. The 50% inhibitory concentration (IC50) in the series on MCF7 TDX [1] (Homo sapiens) is 0.6 ± 0.5 µM; in the series with MCF7 (Homo sapiens), 1250 µM; in the series on SKBR3 #52 (Homo sapiens, SK-BR-3), 8.3 µM; in the series with SKBR3 V (Homo sapiens, SK-BR-3, tumor - breast) it was more than 1000 µM; in the series on SW527P it was more than 1000 µM; in the series on SW527TDX, 6.5 µM. Besides, the 50% inhibitory concentration (IC50) in the series with TS HT1080 #12 (Homo sapiens, HT-1080) was 5.7 ± 1.8 µM; in the series on PC HT1080, 303 µM; in the series on TKC HT1080 #22, 162 µM; with TKC HT1080 #5 it was 275 µM. In addition, in the series on MCF7 TDX [3] (MCF7 TDX cells, from IC50), the “fold more active than NB1011” value was approximately 25 fold. Besides, the “anti-proliferative effect (in words)” value with CCD18co (normal cell strain representing colon, even high concentrations) was “not affected”; with Det 551 (normal cell strain representing skin, even high concentrations), “not affected”. Moreover, the “times the 5-FU normal/tumor ratio” value is 42 times in the series on H630-R10 (H630-R10); 18,000 times in the series on MCF7 TDX [1]; 2,000 times in the series with SKBR3 #52 (SKBR3 #52); 5,000 times in the series with SW527TDX; 961 times in the series with TS HT1080 #12 (TS HT1080 #12). Besides, the “normal/tumor IC50 ratio” value in the series with H630-R10 (H630-R10) was 6.3; in the series with MCF7 TDX [1], 5847; with MCF7 (MCF7), 2.8; in the series with SKBR3 #52 (SKBR3 #52) it was 423; in the series with SW527TDX, 540; in the series on TS HT1080 #12 (TS HT1080 #12), 615. In addition, the “selectivity relative to 5-FU” value in the series with MCF7 (MCF7) is on record as “more than ten times as selective as 5-FU”. For the same molecule, in the series with H630 R10 [4], the “sensitivity of H630 R10 (in words)” value is listed as “insensitive”.
Take `C[C@H](NP(=O)(OC[C@H]1O[C@@H](n2cc(/C=C/Br)c(=O)[nH]c2=O)C[C@@H]1O)Oc1ccccc1)C(=O)O` (stereo partly drawn) [NB1011, reference compound]: the 50% inhibitory concentration (IC50) with H630 R10 [2] was determined as 57 µM; in the series on MCF7 TDX [3] (drug exposure 120 hours, Tomudex resistant breast tumor cell line), 0.13 µM.
